Target: T1, [3H]ifenprodil binding site, rat forebrain membranes (Rattus norvegicus, UniProt P35439+Q00960)
T1 construct: membrane fraction was prepared from frozen adult rat forebrains; tissue Zivic-Miller Laboratories, Inc; host or cells: adult rat forebrain, washed buffy coat membrane fraction
Assay: [3H]Ifenprodil binding assay
Conditions: 4 nM [3H]-ifenprodil, 2 hours at room temperature
Protocol: All buffers and reagents used in assay incubations or to dissolve drugs were prepared using water purified through a Milli-Q reverse osmosis system (Millipore Corp, Bedford, Mass.) and treated with UV emissions. Prior to use in the assays, buffers were further filtered through a sterile Corning filtration unit (Corning Glass Works, Corning, N.Y.) containing a 0.2-micron filter. Buffer used to rinse the membranes on the assay filters was prepared with purified water, but was not refiltered and was stored no longer than 5 days. Stock solutions of the drugs (usually 10 mM) were dissolved in 20 mM HEPES-KOH buffer pH 7.4 (assay buffer) with the addition of 1 to 5 μL of glacial AcOH, if needed to keep them in solution. For eliprodil the stock solution was buffered with the addition of 10% DMSO. All subsequent dilutions from stock were made in buffer.
An extensively washed buffy coat membrane fraction was prepared from frozen adult rat forebrains (Zivic-Miller Laboratories, Inc., Zelienople, Pa.) as described previously (Coughenour L. L., Cordon, J. J., J. Pharmacol. Exp. Ther., 1997;280:584-592) and stored at −80° C. On the day of the assay, pellets were resuspended in 35 mL of assay buffer at pH 7.4 using a Polytron setting 6. After incubation at 37° C. for 30 minutes in a shaking water bath, the homogenate was centrifuged 40,000×g for 10 minutes at 4° C. The pellets were resuspended in fresh buffer and centrifuged 3 more times before final suspension for use in the assay.
[^3H]Ifenprodil Binding. Triplicate incubations were carried out in a volume of 0.5 mL in 1.3 mL polypropylene tubes (Marsh Biomedical Products Inc., Rochester, N.Y.) for 2 hours at room temperature. Incubations contained test agents, membranes (100-200 μg protein) and 4 nM[^3H]-ifenprodil in 20 mM HEPES-KOH buffer, pH 7.4 (assay buffer). Assays were started by addition of the membranes. Bound radioligand was separated by filtration under reduced pressure using a Tomtec Mach II, 96-well cell harvester (Tomtec Inc., Orange, Colo.). Filtration was through Whatman GF/B glass fiber filters (Whatman Ltd, Maidstone, England), which had been soaked for at least 15 minutes in 0.3% polyethylenimine and allowed to air dry. The filters were rinsed with 3 mL of ice cold assay buffer within 6 seconds. Air was allowed to pass through the filters for an additional 10 seconds to remove residual moisture. The filter mat was supported on a cold (−20° C.) teflon support, and filters from individual wells were separated and placed in Mini Poly-Q vials (Beckman Instruments Inc., Fullerton, Calif.) and filled with 4 mL of scintillation cocktail (Beckman Ready Protein^+). Radioactivity retained on the filter was determined by liquid scintillation spectrophotometry. Nonspecific binding was defined as the binding in the presence of 1 mM ifenprodil. Specific binding was 90%.
Data analysis. Binding curves were statistically analyzed for a best one or two site competition fit using GraphPad Prism software (GraphPad Software Inc., San Diego, Calif.). The normalized data was fit by nonweighted nonlinear regression to either [formula]
Control data was entered as 100%, and no parameters were constrained. Inhibition curves were compared by ANOVA with post test comparisons of the logIC50 using Dunnett's multiple comparisons post test or Student's nonpaired, two-tailed t-test (GraphPad InStat software).

T1 sequence (Q00960 27-1482, other chains not shown): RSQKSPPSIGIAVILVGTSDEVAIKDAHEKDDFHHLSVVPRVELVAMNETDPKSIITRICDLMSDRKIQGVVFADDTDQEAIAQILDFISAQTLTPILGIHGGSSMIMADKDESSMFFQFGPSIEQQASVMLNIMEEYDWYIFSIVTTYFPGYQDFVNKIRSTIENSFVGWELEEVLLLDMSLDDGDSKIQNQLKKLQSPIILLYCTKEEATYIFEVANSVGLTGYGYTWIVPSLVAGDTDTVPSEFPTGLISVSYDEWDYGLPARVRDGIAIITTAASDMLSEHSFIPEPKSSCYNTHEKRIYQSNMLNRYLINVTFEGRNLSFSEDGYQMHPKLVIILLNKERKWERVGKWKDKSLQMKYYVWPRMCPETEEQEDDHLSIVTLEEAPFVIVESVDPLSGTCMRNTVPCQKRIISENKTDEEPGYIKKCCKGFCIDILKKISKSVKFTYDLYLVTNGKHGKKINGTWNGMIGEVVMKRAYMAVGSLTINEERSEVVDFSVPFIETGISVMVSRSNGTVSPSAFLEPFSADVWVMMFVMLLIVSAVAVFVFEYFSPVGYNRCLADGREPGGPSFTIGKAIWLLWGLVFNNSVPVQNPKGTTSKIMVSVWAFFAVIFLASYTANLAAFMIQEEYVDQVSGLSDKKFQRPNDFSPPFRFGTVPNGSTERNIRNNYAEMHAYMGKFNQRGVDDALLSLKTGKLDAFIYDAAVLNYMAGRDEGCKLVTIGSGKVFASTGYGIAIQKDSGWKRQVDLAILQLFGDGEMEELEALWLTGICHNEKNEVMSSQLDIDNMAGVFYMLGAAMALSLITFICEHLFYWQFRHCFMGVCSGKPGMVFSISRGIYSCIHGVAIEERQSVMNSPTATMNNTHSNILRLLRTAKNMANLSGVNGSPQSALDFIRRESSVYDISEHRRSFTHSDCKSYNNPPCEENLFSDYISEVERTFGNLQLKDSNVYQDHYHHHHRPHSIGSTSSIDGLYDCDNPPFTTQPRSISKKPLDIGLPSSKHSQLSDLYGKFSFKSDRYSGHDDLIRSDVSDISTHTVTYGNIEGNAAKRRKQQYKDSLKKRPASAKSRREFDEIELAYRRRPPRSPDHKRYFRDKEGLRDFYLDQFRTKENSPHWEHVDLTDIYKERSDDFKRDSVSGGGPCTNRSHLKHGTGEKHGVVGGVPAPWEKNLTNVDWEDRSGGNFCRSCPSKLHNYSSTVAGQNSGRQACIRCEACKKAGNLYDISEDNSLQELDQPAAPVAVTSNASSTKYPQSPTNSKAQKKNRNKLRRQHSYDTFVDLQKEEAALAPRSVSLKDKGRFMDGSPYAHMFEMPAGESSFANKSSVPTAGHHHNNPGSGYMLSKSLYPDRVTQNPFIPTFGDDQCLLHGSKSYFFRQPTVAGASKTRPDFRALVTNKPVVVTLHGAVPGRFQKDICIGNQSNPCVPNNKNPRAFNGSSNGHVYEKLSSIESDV

O=C(NCCNC1CCC(c2ccc3[nH]c(=O)oc3c2)CC1)c1ccccc1 (mixture of isomers) [Example 42b, N-{2-[4-(2-Oxo-2,3-dihydrobenzoxazol-6-yl)cyclohexylamino]ethyl}-benzamide]
IC50: 980 nM

Cc1cc(F)ccc1CCCN(C)C1CCC(c2ccc3[nH]c(=O)oc3c2)CC1 (stereo in doubt) [Example 43b, 6-(trans-{4-[Methyl(4-fluoro-2-methylphenylpropyl)amino]cyclohexyl})-3H-benzoxazol-2-one]
IC50: 56 nM

O=c1[nH]c2ccc([C@H]3CC[C@@H](NCCSc4ccccc4)CC3)cc2o1 [Example 5b, 6-[cis-4-(2-Phenylsulfanylethylamino)cyclohexyl]-3H-benzoxazol-2-one]
IC50: 21 nM

O=c1[nH]c2ccc([C@H]3CC[C@H](NCCCc4ccc(C(F)(F)F)cc4)CC3)cc2o1 [Example 14, 6-{trans-4-[3-(4-Trifluoromethylphenyl)propylamino]cyclohexyl}-3H-benzoxazol-2-one]
IC50: 128 nM

CN(CCCc1ccc(F)cc1)[C@H]1CC[C@@H](c2ccc3[nH]c(=O)oc3c2)CC1 [Example 19, 6-(cis-4-{[3-(4-Fluorophenyl)propyl]methylamino}cyclohexyl)-3H-benzoxazol-2-one]
IC50: 185 nM

CN(CCCc1ccc(F)cc1F)[C@H]1CC[C@H](c2ccc3[nH]c(=O)oc3c2)CC1 [Example 24b, 6-(trans-4-{[3-(2,4-Difluorophenyl)propyl]methylamino}cyclohexyl)-3H-benzoxazol-2-one]
IC50: 14 nM

CCN(CCCc1ccc(C(F)(F)F)cc1)[C@H]1CC[C@H](c2ccc3[nH]c(=O)oc3c2)CC1 [Example 26]
IC50: 188 nM

CCN([C@H]1CC[C@H](c2ccc3[nH]c(=O)oc3c2)CC1)[C@H](C)CCc1ccccc1 [Example 27, 6-(trans-4-{Ethyl-[(R)-1-methyl-3-phenylpropyl]amino}cyclohexyl)-3H-benzoxazol-2-one]
IC50: 132 nM

CCN([C@H]1CC[C@H](c2ccc3[nH]c(=O)oc3c2)CC1)[C@@H](C)CCc1ccccc1 [Example 28, 6-(trans-4-{Ethyl-[(S)-1-methyl-3-phenylpropyl]amino}cyclohexyl)-3H-benzoxazol-2-one]
IC50: 184 nM

O=c1[nH]c2ccc([C@H]3CC[C@H](N(CCO)CCCc4ccc(F)cc4)CC3)cc2o1 [Example 29, 6-{trans-4-[[3-(4-Fluorophenyl)propyl]-(2-hydroxyethyl)amino]cyclohexyl}-3H-benzoxazol-2-one]
IC50: 18 nM

O=c1[nH]c2ccc([C@H]3CC[C@H](N(CCCc4ccc(F)cc4)CC4CC4)CC3)cc2o1 [Example 30, 6-(trans-4-{Cyclopropylmethyl-[3-(4-fluorophenyl)propyl]amino}cyclohexyl)-3H-benzoxazol-2-one]
IC50: 219 nM

O=c1[nH]c2ccc([C@H]3CC[C@H](N(CCCc4ccc(F)cc4)Cc4ccoc4)CC3)cc2o1 [Example 31, 6-(trans-4-{[3-(4-Fluorophenyl)propyl]furan-3-ylmethylamino}cyclohexyl)-3H-benzoxazol-2-one]
IC50: 465 nM

C=CCN(CCCc1ccc(F)cc1)[C@H]1CC[C@H](c2ccc3[nH]c(=O)oc3c2)CC1 [Example 32, 6-(trans-4-{Allyl-[3-(4-fluorophenyl)propyl]amino}cyclohexyl)-3H-benzoxazol-2-one]
IC50: 158 nM

CC(C)CN(CCCc1ccc(F)cc1)[C@H]1CC[C@H](c2ccc3[nH]c(=O)oc3c2)CC1 [Example 33, 6-(trans-4-{[3-(4-Fluorophenyl)propyl]isobutylamino}cyclohexyl)-3H-benzoxazol-2-one]
IC50: > 1000 nM

NC(=O)CN(CCCc1ccc(F)cc1)[C@H]1CC[C@H](c2ccc3[nH]c(=O)oc3c2)CC1 [Example 34, 2-{[3-(4-Fluorophenyl)propyl]-[4-(2-oxo-2,3-dihydro-benzoxazol-6-yl)-cyclohexyl]amino}acetamide]
IC50: 152 nM

NCCN(CCCc1ccc(F)cc1)[C@H]1CC[C@H](c2ccc3[nH]c(=O)oc3c2)CC1 [Example 35, 6-(trans-4-{(2-Aminoethyl)-[3-(4-fluorophenyl)propyl]amino}cyclohexyl)-3H-benzoxazol-2-one]
IC50: 170 nM

CCC[C@@H](CSc1ccc(F)cc1)N(CC)[C@H]1CC[C@H](c2ccc3[nH]c(=O)oc3c2)CC1 [Example 36b, (S)-6-{trans-4-[Ethyl(1-(4-fluorophenylsulfanyl)pentan-2-yl)amino]-cyclohexyl}-3H-benzoxazol-2-one]
IC50: > 1000 nM

CN(CCCc1ccc(Cl)cc1)[C@H]1CC[C@H](c2ccc3[nH]c(=O)oc3c2)CC1 [Example 38b, 6-(trans-4-{[3-(4-Chlorophenyl)propyl]methylamino}cyclohexyl)-3H-benzoxazol-2-one]
IC50: 7 nM

CN(CCCc1cc(F)cc(F)c1)[C@H]1CC[C@H](c2ccc3[nH]c(=O)oc3c2)CC1 [Example 39b, 6-(trans-{[3-(3,5-Difluorophenyl)propyl]methylamino}cyclohexyl)-3H-benzoxazol-2-one]
IC50: 37 nM

CN(CCCc1ccc(F)c(F)c1)[C@H]1CC[C@H](c2ccc3[nH]c(=O)oc3c2)CC1 [Example 40b, 6-(trans-4-{[3-(3,4-Difluorophenyl)propyl]methylamino}cyclohexyl)-3H-benzoxazol-2-one]
IC50: 29 nM

Cc1ccc(CCCN(C)[C@H]2CC[C@H](c3ccc4[nH]c(=O)oc4c3)CC2)c(C)c1 [Example 41b]
IC50: 68 nM

CN(CCCc1ccc(F)cc1Cl)[C@H]1CC[C@H](c2ccc3[nH]c(=O)oc3c2)CC1 [Example 44b, 6-(trans-4-{[3-(2-Chloro-4-fluorophenyl)propyl]methylamino}cyclohexyl)-3H-benzoxazol-2-one]
IC50: 7 nM

CN(CCCc1ccc(Cl)cc1F)[C@H]1CC[C@H](c2ccc3[nH]c(=O)oc3c2)CC1 [Example 45b, 6-(trans-4-{[3-(4-Chloro-2-fluorophenyl)propyl]methylamino}cyclohexyl)-3H-benzoxazol-2-one]
IC50: 7 nM

CN(CCCc1ccccc1F)[C@H]1CC[C@H](c2ccc3[nH]c(=O)oc3c2)CC1 [Example 46b, 6-(trans-4-{[3-(2-Fluorophenyl)propyl]methylamino}cyclohexyl)-3H-benzoxazol-2-one]
IC50: 9 nM

CN(CCCc1cccc(F)c1)[C@H]1CC[C@H](c2ccc3[nH]c(=O)oc3c2)CC1 [Example 47b, 6-(trans-4-{[3-(3-Fluorophenyl)propyl]methylamino}cyclohexyl)-3H-benzoxazol-2-one]
IC50: 15 nM

Cc1c(F)cccc1CCCN(C)[C@H]1CC[C@H](c2ccc3[nH]c(=O)oc3c2)CC1 [Example 48b, 6-(trans-4-{[3-(3-Fluoro-2-methylphenyl)propyl]methylamino}cyclohexyl)-3H-benzoxazol-2-one]
IC50: 20 nM

CN(CCCC1CCCCC1)[C@H]1CC[C@H](c2ccc3[nH]c(=O)oc3c2)CC1 [Example 49b, 6-{trans-4-[(3-Cyclohexylpropyl)methylamino]cyclohexyl}-3H-benzoxazol-2-one]
IC50: 22 nM

CC(Cc1ccccc1)CN(C)[C@H]1CC[C@H](c2ccc3[nH]c(=O)oc3c2)CC1 (stereo partly drawn) [Example 50b, 6-(trans-{4-[Methyl(2-methyl-3-phenylpropyl)amino]cyclohexyl})-3H-benzoxazol-2-one]
IC50: 351 nM

CN(CC#Cc1ccccc1)[C@H]1CC[C@H](c2ccc3[nH]c(=O)oc3c2)CC1 [Example 51b, 6-(trans-{4-[Methyl(3-phenyl-prop-2-ynyl)amino]cyclohexyl})-3H-benzoxazol-2-one]
IC50: 550 nM

CN(CCCc1ccsc1)[C@H]1CC[C@H](c2ccc3[nH]c(=O)oc3c2)CC1 [Example 52b, 6-[trans-4-{[3-(3-Thiophen-3-yl)propyl]methylamino}cyclohexyl)-3H-benzoxazol-2-one]
IC50: 3 nM

CC(C)c1ccc(CCCN(C)[C@H]2CC[C@H](c3ccc4[nH]c(=O)oc4c3)CC2)cc1 [Example 53, 6-(trans-4-{[3-(4-Isopropylphenyl)propyl]methylamino}cyclohexyl)-3H-benzoxazol-2-one]
IC50: 2 nM

Reference: US6794402B2, “Bicyclic cyclohexylamines and their use as NMDA receptor antagonists” (Warner-Lambert Company, priority 2000, dated 2004)
